This is an account of results in ChEMBL document CHEMBL1138591, “Hair growth stimulator property of thienyl substituted pyrazole carboxamide derivatives as a CB1 receptor antagonist with in vivo antiobesity effect” (Bioorg Med Chem Lett, 2009).

Activity calls are given as the source filed them. The calls are words filed in the database; no cut-off is given here.

One data set concerns the target Cannabinoid receptor 1 (Homo sapiens, UniProt P21554). Put plainly: Antagonist activity at human cannabinoid CB1 receptor expressed in CHOK1 cells assessed as cAMP activity. Format: functional, cell-based, CHO-K1.
The target in the next data set is Cannabinoid receptor 2 (Homo sapiens, UniProt P34972). As to the kind of experiment: Antagonist activity at human cannabinoid CB2 receptor expressed in CHOK1 cells assessed as cAMP activity. Format: functional, cell-based, CHO-K1.
For a further data set, the system named is Rattus norvegicus. Put plainly: Antiobesity activity in Zucker fa/fa rat assessed as inhibition of 5% sucrose solution intake at 10 mg/kg administered as single dose up to 4 hrs relative to control. Format: functional.
The nature of data set [1]: Drug level in fasted Zucker fa/fa rat white adipose tissue at 30 mg/kg, po after 3 hrs. Format: ADME, organism-based. Further details: dose 30 mg/kg, route oral. Particulars: read-out: Drug uptake.
The nature of data set [2]: Plasma concentration in fasted Zucker fa/fa rat at 30 mg/kg, po after 3 hrs. The class given is ADME, organism-based. Set-up: dose 30 mg/kg, route oral.
Data set [3] is described as follows: Drug level in fasted Zucker fa/fa rat brain at 30 mg/kg, po after 3 hrs. The class given is ADME, organism-based. Set-up: dose 30 mg/kg, route oral. The conditions noted are these: read-out: Drug uptake.
Data set [4] relates to Mus musculus. Put plainly: Hair growth stimulatory activity in high fat diet-induced C57BL/6J mouse at 10 mg/kg administered tropically for 28 days measured after 28 days. Format: functional, organism-based. Set-up: dose 10 mg/kg.
The test system of data set [5] is Mus musculus. As to the kind of experiment: Hair growth stimulatory activity in high fat diet-induced C57BL/6J mouse assessed as bald area at 10 mg/kg, po administered once daily for 28 days measured after 28 days (Rvb=0.346 +/- 0.079 cm'2). Format: functional.
Data set [6] is described as follows: AUC (0 to infinity) in fasted Zucker fa/fa rat at 30 mg/kg, po. Format: ADME, organism-based. Set-up: time infinity, dose 30 mg/kg, route oral. Particulars: plasma.
Data set [7] relates to Mus musculus. Put plainly: Inhibition of WIN-55212-2-induced catalepsy in Swiss albino mouse assessed as immobility on ring at 1 mg/kg po up to 300 seconds by ring test. Set-up: scale not given: the % may be the effect or the level left. Format: functional.
Data set [8] in a line: Cmax in fasted Zucker fa/fa rat at 30 mg/kg, po. Further details: dose 30 mg/kg, route oral. The class given is ADME, organism-based. The conditions noted are these: in vivo.
Data set [9] relates to Mus musculus. As to the kind of experiment: Inhibition of WIN-55212-2-induced analgesia in Swiss albino mouse assessed as maximal possible effect at 3 mg/kg po by hot plate method. The class given is functional. Set-up: scale not given: the % may be the effect or the level left. A general note: Hot-plate and tail-flick tests time the reaction to a heat stimulus.
Data set [10] concerns Mus musculus. As to the kind of experiment: Inhibition of WIN-55212-2-induced catalepsy in Swiss albino mouse assessed as immobility on ring at 5 mg/kg po up to 300 seconds by ring test. Format: functional. Further details: scale not given: the % may be the effect or the level left.
Data set [11] can be described thus: Drug level in fasted Zucker fa/fa rat white adipose tissue assessed per gram of tissue at 30 mg/kg, po after 3 hrs. The class given is ADME, organism-based. Set-up: dose 30 mg/kg, route oral. The conditions noted are these: read-out: Drug uptake.
Data set [12] deals with Mus musculus. Put plainly: Effect on WIN-55212-2-induced locomotor activity in Swiss albino mouse assessed as number of square crossed at 5 mg/kg po up to 300 seconds (RbV=20.67 +/- 3.38 squares). The class given is functional.
Data set [13] can be described thus: Tmax in fasted Zucker fa/fa rat at 30 mg/kg, po. Format: ADME, organism-based. Further details: dose 30 mg/kg, route oral. The conditions noted are these: in vivo.
Data set [14] is described as follows: Half life in fasted Zucker fa/fa rat at 30 mg/kg, po. Further details: dose 30 mg/kg, route oral. Particulars: in vivo. Format: ADME, organism-based.
Data set [15] has as its system Mus musculus. Put plainly: Inhibition of WIN-55212-2-induced catalepsy in Swiss albino mouse assessed as immobility on ring at 3 mg/kg po up to 300 seconds by ring test. Format: functional. Further details: scale not given: the % may be the effect or the level left.
Data set [16] concerns Mus musculus. Put plainly: Inhibition of WIN-55212-2-induced catalepsy in Swiss albino mouse assessed as immobility on ring at 10 mg/kg po up to 300 seconds by ring test. The class given is functional. Set-up: scale not given: the % may be the effect or the level left.
The species entered for data set [17] is Mus musculus. The conditions noted are these: Swiss albino, 3 mg/kg.
Description: Inhibition of WIN-55212-2-induced hypothermia in Swiss albino mouse assessed as change in body temperature at 3 mg/kg po
For data set [18], the species on record is Mus musculus. Particulars: Swiss albino, 10 mg/kg.
Description: Inhibition of WIN-55212-2-induced hypothermia in Swiss albino mouse assessed as change in body temperature at 10 mg/kg po
Data set [19] relates to Mus musculus. Put plainly: Inhibition of WIN-55212-2-induced analgesia in Swiss albino mouse assessed as maximal possible effect at 5 mg/kg po by hot plate method. The class given is functional. Further details: scale not given: the % may be the effect or the level left.
For data set [20], the system named is Mus musculus. As to the kind of experiment: Effect on WIN-55212-2-induced locomotor activity in Swiss albino mouse assessed as number of square crossed at 10 mg/kg po up to 300 seconds (RbV=20.67 +/- 3.38 squares). The class given is functional.
Data set [21] deals with Mus musculus. Put plainly: Inhibition of WIN-55212-2-induced analgesia in Swiss albino mouse assessed as maximal possible effect at 10 mg/kg po by hot plate method. Format: functional. Set-up: scale not given: the % may be the effect or the level left.
In data set [22] the test system is Mus musculus. As to the kind of experiment: Effect on WIN-55212-2-induced locomotor activity in Swiss albino mouse assessed as number of square crossed at 1 mg/kg po up to 300 seconds (RbV=20.67 +/- 3.38 squares). The class given is functional.
The test system of data set [23] is Mus musculus. As to the kind of experiment: Effect on WIN-55212-2-induced locomotor activity in Swiss albino mouse assessed as number of square crossed at 3 mg/kg po up to 300 seconds (RbV=20.67 +/- 3.38 squares). Format: functional.
The species entered for data set [24] is Mus musculus. The conditions noted are these: Swiss albino, 1 mg/kg.
Description: Inhibition of WIN-55212-2-induced hypothermia in Swiss albino mouse assessed as change in body temperature at 1 mg/kg po
Data set [25] relates to Mus musculus. As to the kind of experiment: Antiobesity activity in high fat diet-induced obese C57BL/6J mouse model assessed as reduction in body weight gain at 10 mg/kg, po administered once daily for 28 days. Format: functional, organism-based. Further details: dose 10 mg/kg.
Data set [26] has as its system Mus musculus. As to the kind of experiment: Inhibition of WIN-55212-2-induced analgesia in Swiss albino mouse assessed as maximal possible effect at 1 mg/kg po by hot plate method. Format: functional. Further details: scale not given: the % may be the effect or the level left.
The species named for data set [27] is Mus musculus. Particulars: Swiss albino, 5 mg/kg.
Description: Inhibition of WIN-55212-2-induced hypothermia in Swiss albino mouse assessed as change in body temperature at 5 mg/kg po
Data set [28] can be described thus: Drug level in fasted Zucker fa/fa rat brain assessed per gram of brain at 30 mg/kg, po after 3 hrs. The class given is ADME, organism-based. Further details: dose 30 mg/kg, route oral. Particulars: read-out: Drug uptake.
For data set [29], the system named is Mus musculus. As to the kind of experiment: Antiobesity activity in high fat diet-induced obese C57BL/6J mouse model assessed as reduction in food intake at 10 mg/kg, po administered once daily for 28 days. The class given is functional, organism-based. Further details: dose 10 mg/kg.
For data set [30], the system named is Mus musculus. As to the kind of experiment: Hair growth stimulatory activity in high fat diet-induced C57BL/6J mouse at 10 mg/kg, po administered once daily for 28 days measured after 28 days. Format: functional, organism-based. Set-up: dose 10 mg/kg.

A word on the EC50: it is the midpoint of the concentration-response curve. As usually defined, the inhibition in vivo is the drop in the measured response relative to a control, in per cent. Usually AUC(0-inf) stands for the area under the concentration-time curve extrapolated to infinity. The Cmax is the highest concentration seen after dosing. Usually Tmax stands for the time at which the peak concentration occurs. A word on the half-life: it is the time in which the quantity being followed falls by half.

Cannabinoid receptor 2, sequence (P34972 whole entry): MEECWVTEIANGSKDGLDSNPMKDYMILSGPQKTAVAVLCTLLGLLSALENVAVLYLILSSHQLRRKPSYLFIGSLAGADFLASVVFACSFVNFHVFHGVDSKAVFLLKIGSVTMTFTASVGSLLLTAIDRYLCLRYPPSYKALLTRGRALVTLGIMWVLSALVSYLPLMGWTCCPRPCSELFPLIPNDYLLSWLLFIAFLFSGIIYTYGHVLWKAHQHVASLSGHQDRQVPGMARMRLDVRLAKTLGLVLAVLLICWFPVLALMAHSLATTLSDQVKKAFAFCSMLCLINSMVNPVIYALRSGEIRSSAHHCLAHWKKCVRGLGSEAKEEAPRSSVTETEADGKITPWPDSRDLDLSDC
Cannabinoid receptor 1, sequence (P21554 whole entry): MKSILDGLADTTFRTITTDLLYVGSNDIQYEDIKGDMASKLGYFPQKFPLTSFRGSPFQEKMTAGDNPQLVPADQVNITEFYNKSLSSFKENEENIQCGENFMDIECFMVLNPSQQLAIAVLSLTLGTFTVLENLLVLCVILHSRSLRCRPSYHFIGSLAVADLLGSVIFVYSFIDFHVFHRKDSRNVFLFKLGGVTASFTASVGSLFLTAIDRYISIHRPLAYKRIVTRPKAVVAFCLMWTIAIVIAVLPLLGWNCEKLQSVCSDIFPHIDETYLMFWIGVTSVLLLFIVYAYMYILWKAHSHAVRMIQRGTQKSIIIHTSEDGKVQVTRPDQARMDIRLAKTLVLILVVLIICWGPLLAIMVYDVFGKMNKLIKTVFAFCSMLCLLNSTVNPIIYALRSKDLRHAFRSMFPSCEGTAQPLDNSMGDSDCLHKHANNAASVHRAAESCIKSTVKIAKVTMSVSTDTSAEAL

Take `Cc1c(C(=O)NN2CCCCCC2)nn(-c2ccc(Cl)cc2Cl)c1-c1ccc(Cl)s1`: the concentration giving a half-maximal response (EC50) amounted to 1.1 µM at Cannabinoid receptor 1 and 12.8 µM at Cannabinoid receptor 2. Further, the inhibition in vivo at 10 mg/kg in the data set on Rattus norvegicus stood at 20.1%.

Take `CCc1c(C(=O)NN2CCCCC2)nn(-c2ccc(Cl)cc2Cl)c1-c1ccc(Cl)s1`: the EC50 was 0.54 µM at Cannabinoid receptor 1 and 25.9 µM at Cannabinoid receptor 2. Also, the inhibition in vivo at 10 mg/kg with Rattus norvegicus amounted to 31.3%.

For `Cc1c(C(=O)NN2CC3CCCC3C2)nn(-c2ccc(Cl)cc2Cl)c1-c1ccc(Cl)s1` (stereo unspecified), the EC50 at Cannabinoid receptor 1 was found to be 0.8 µM; on Cannabinoid receptor 2 it was 15.7 µM. Moreover, the inhibition in vivo at 10 mg/kg with Rattus norvegicus was determined as 26.3%.

Consider `CCc1c(C(=O)NN2CCCCC2)nn(-c2ccc(Cl)cc2Cl)c1-c1ccc(Br)s1`, for which the 50% effective concentration (EC50) stood at 0.51 µM on Cannabinoid receptor 1 and 19.5 µM on Cannabinoid receptor 2. In addition, in the data set with Rattus norvegicus, the inhibition in vivo at 10 mg/kg worked out at 39.2%.

For `Cc1c(C(=O)NN2CCCCC2)nn(-c2ccc(Cl)cc2Cl)c1-c1ccc(Cl)cc1` [RIMONABANT], in the data set on Rattus norvegicus, the inhibition in vivo at 10 mg/kg was 40.1%. Also, the concentration at 3 h in data set [1] was 1400 ng/mL; in data set [2], 400 ng/mL; in [3], 150 ng/mL. For the same compound, the result in the data set on Mus musculus [4] was inactive. Further, the Activity in the data set with Mus musculus [5] came to 0.156 cm2.

Consider `Cc1c(C(=O)NN2CCCCC2)nn(-c2ccc(Cl)cc2Cl)c1-c1ccc(Cl)s1`, for which the AUC(0-inf) in data set [6] is 12400 ng·h/mL. Besides, the Activity amounted to 80.73% with Mus musculus [7]; 12.28% with Mus musculus [9]; 58.13% in the data set with Mus musculus [10]; 126.5 in the data set with Mus musculus [12]; 73.13% in the data set with Mus musculus [15]; 41.8% in the data set with Mus musculus [16]. In addition, the Activity is 4.12% in the data set on Mus musculus [19]; 171.4 with Mus musculus [20]; 4.35% with Mus musculus [21]; 69.8 in the data set on Mus musculus [22]; 109.2 with Mus musculus [23]; 34.84% with Mus musculus [26]. Moreover, the Activity in the data set with Mus musculus [5] is given as 0.011 cm2. The highest level in data set [8] (Cmax) was 520 ng/mL. In addition, the EC50 on Cannabinoid receptor 1 amounted to 0.58 µM; on Cannabinoid receptor 2 it was 23.7 µM. For the same compound, the concentration at 3 h in data set [11] was determined as 2970 ng/g; in data set [1], 980 ng/mL; in data set [2], 850 ng/mL; in [3] it was 210 ng/mL; in [28], 640 ng/g. Moreover, the inhibition in vivo at 10 mg/kg in the data set on Rattus norvegicus turned out to be 48%. Also, the Tmax in data set [13] worked out at 1.4 h. The same compound showed a half-life in data set [14] of 20.8 h. In addition, the deltaT in the data set filed under Mus musculus [17] is 1.92 °C; in the data set filed under Mus musculus [18] it was 0.23 °C; in the data set filed under Mus musculus [24], 2.56 °C; in the data set listed under Mus musculus [27], 0.23 °C. In the data set on Mus musculus [4], the result was inactive. Besides, the result with Mus musculus [25], in the data set on Mus musculus [29] and in the data set on Mus musculus [30] was Active.

For the compound `Cc1c(C(=O)NN2CCCCC2)nn(-c2ccc(Cl)cc2Cl)c1-c1cccs1`, the EC50 on Cannabinoid receptor 1 turned out to be 1.33 µM; at Cannabinoid receptor 2, 7.55 µM. Moreover, in the data set on Rattus norvegicus, the inhibition in vivo at 10 mg/kg came to 12.4%.

For the compound `Cc1c(C(=O)NN2CCCCC2)nn(-c2ccc(Cl)cc2Cl)c1-c1ccc(I)s1`, the EC50 at Cannabinoid receptor 1 was 0.32 µM; at Cannabinoid receptor 2, 29.4 µM. The inhibition in vivo at 10 mg/kg in the data set with Rattus norvegicus turned out to be 42.1%.

Regarding `Cc1c(C(=O)NN2CCCC2)nn(-c2ccc(Cl)cc2Cl)c1-c1ccc(Cl)s1`, the EC50 was determined as 1 µM at Cannabinoid receptor 1 and 20.9 µM on Cannabinoid receptor 2. Further, the inhibition in vivo at 10 mg/kg with Rattus norvegicus was found to be 34.3%.

Turning to `Cc1c(C(=O)NN2CCOCC2)nn(-c2ccc(Cl)cc2Cl)c1-c1ccc(Cl)s1`, the EC50 at Cannabinoid receptor 1 is 0.69 µM; on Cannabinoid receptor 2, 7.43 µM. Besides, in the data set on Rattus norvegicus, the inhibition in vivo at 10 mg/kg stood at 31.5%.

Regarding `Cc1c(C(=O)NN2CCCCC2)nn(-c2ccc(Cl)cc2Cl)c1-c1ccc(Br)s1`, the EC50 on Cannabinoid receptor 1 was 0.4 µM; on Cannabinoid receptor 2, 23.2 µM. Also, the inhibition in vivo at 10 mg/kg in the data set with Rattus norvegicus came out at 37.8%.
